Test results published in PMC7884015 (Journal of Agricultural and Food Chemistry, 2021).
Entries after “also recorded” stand apart in the source; their conditions may differ. Where two headings read alike, the source gives them in different places.

What was measured:
[1] = for Metabolization percentage, day 4 to 5: quantity in whole bees vs intake during the last 24 h of feeding
From the text: (§1) Honey bees (A. mellifera L) were collected from brood frames in the apiary of Aarhus University, Flakkebjerg. The collected bees were fed on 50% sucrose for 3 days. On day 3, the bees were divided into eight experimental groups placed in feeding cages (N = 49–73). The exact numbers of bees in the individual cages were counted at the end of the experiment. A portion of bees were also collected for the analysis of the presence of the compounds prior to the experiment. Thus, these bees served as a negative control group. The feeding boxes were placed in incubators in complete darkness under the following conditions: 34 °C; 38–40% relative humidity. Information about plants known to produce the phytochemicals fed to the honey bees is included in the Supporting Information (Table S1). The prepared solutions were placed in 1.5 mL Eppendorf tubes, and the bottom of the tubes was pierced with a sterilized needle to allow the bees to feed on the solution. The feeding solutions were replaced every 24 h to prevent compound degradation and measure food intake. Dead bees were counted and removed daily. On day 5, the feeding containers were removed, and 2 h later, the bees were anesthetized with CO2 and killed by freezing.
Twelve individual bees from each of the experimental groups were rinsed with water and placed individually in 1.5 mL Eppendorf tubes. The bees were then lyophilized and transferred individually to Falcon tubes for extraction. […] The extraction solvents were added, and the bees were extracted by shaking using an Intelli-Mixer for 1 h (60 rpm). […] After extraction, the samples were centrifuged (12 min, 4 °C, 4500 rpm). […] Extracts of bees fed on triptolide were further purified by solid phase extraction (SPE) using a protocol modified from Wang et al.[30] One milliliter of the methanol extracts was diluted to 10 mL with Milli-Q water, 100 μL of formic acid was added, and the diluted extracts were loaded onto 30 mg Oasis HLB prime SPE (Waters, Hedehusene, Denmark) cartridges without prior column conditioning. The SPE cartridges were first washed with 1 mL of 2% ammonium hydroxide in 1:9 methanol/water and then with 1 mL of 2% acetic acid in 3:7 methanol/water, and triptolide was eluted from the cartridges with 1 mL of 4:1 methanol/water. Prior to HPLC-MS/MS analyses, 225 μL of the SPE eluates was diluted with 275 μL of 5 mM ammonium formate and filtered using a syringe filter (Kinesis KX PTFE syringe filter 13 mm, 0.22 μm, Mikrolab, Aarhus, Denmark).
(§2) Prior to the analysis, the compound-dependent mass spectrometer parameters of the eight compounds were optimized by infusion. For each compound, two MRM transitions were monitored (Table 2); one transition was used for quantification, whereas the other was used as a qualifier MRM to ensure correct identification.
(§3) The compounds were separated on a Synergy Fusion column (150 mm × 2 mm, 4 μm; Phenomenex, Værløse, Denmark) with a flow rate of 0.4 mL/min, and the gradient was as follows: 0–2 min: 100% A; 2–18 min: 100–30% A; 18–19 min: 30–0% A; 19–22 min: 0% A; 22–23 min: 0–100% A and 23–30 min: 100% A. Source parameters were as follows: curtain gas (CUR), 45 psi; collision gas (CAD), medium; temperature (TEM), 400 °C; ion source gas 1 (GS 1), 90 psi; ion source gas 2 (GS 2), 30 psi; and ionspray voltage (IS), 4200 V. Amygdalin was analyzed using the same source parameters and chromatographic method as described above, but in negative mode. […] The column was a Hypersil BDS C18 (250 mm × 2.1 mm, 5 μm; Thermo Fisher, Hvidovre, Denmark), and the solvent system consisted of 5 mM ammonium formate (A) and methanol (B). […] An injection volume of 30 μL was used for the triptolide analyses, whereas 20 and 30 μL were injected for the remaining compounds for whole and dissected bees, respectively.

[2] = in vivo; conditions: for Bee without gut %: percentage of total quantity recovered in the dissected bee found in the bee without gut; for Bee without gut % / Gut %: N = 6; for Gut %: percentage of total quantity recovered in the dissected bee found in the gut
From the text: as §1
Six bees from each of the experimental groups were defrosted and rinsed with water, and their heads were removed with a scalpel to cut the esophagus. The complete alimentary canal (hereafter “gut”) was removed by grabbing the stinger with tweezers and gently pulling until the alimentary canal was released.[31] The two samples consisting of the gut and the rest of the bee without the gut (head, thorax, and abdomen; hereafter, “bee without gut”) were lyophilized separately in 1.5 mL Eppendorf tubes. Upon drying, the samples comprising the bees without guts were transferred to the extraction Falcon tubes, pulverized, and extracted as described above for the whole bees. Samples comprising the guts were instead pulverized directly in the 1.5 mL Eppendorf tubes by adding two metal beads and placing these tubes in the Geno/Grinder using a modified rack. Because of the small sample size, the pulverized guts were then gradually transferred to the extraction Falcon tubes using the extraction solvents to flush the material from the Eppendorf tubes. The remaining parts of the extraction followed the protocols described above for whole bees.
as §2, §3
In the individual dissected bees (N = 6), the sum of the quantities recovered in the guts and the bees without guts designates the total quantity of compound recovered in that individual.

[3] = system: honey bees; conditions: cited from earlier work
[4] = system: honey bee memory retrieval; conditions: cited from earlier work
[5] = system: honey bee immune functions (antimicrobial peptide hymenoptaecin); parameters: method as in PMID 28981688; conditions: cited from earlier work
[6] = system: Crithidia bombi; conditions: bumble bees; cited from earlier work
[7] = comparison between the eight phytochemicals, P < 0.05
[8] = whole bees N = 12, sampled day 5, 2 h after feeding was terminated, ± SD
[9] = dissected bees N = 6, day 5, ± SD
[10] = in vivo, po, oral bioavailability (%), percentage of the total ingested quantity over the 5-day feeding period recovered in the bees without guts, ± SD, dissected bees N = 6
[11] = honey bee (Apis mellifera), in vivo, po, oral bioavailability (%), percentage of the total ingested quantity over the 5-day feeding period recovered in the bees without guts, ± SD, dissected bees N = 6
[12] = percentage of the total ingested quantity over the 5-day feeding period recovered in the bees without guts, ± SD, dissected bees N = 6
[13] = honey bee (Apis mellifera), in vivo

| SMILES | Relative metabolization rate [1, 7] | Mean concentration (ng/bee) in whole bees [1, 8] | Bee without gut (ng/bee) [2, 9] | Gut (ng/bee) [2, 9] | bioavailability [2, 10] | Bee without gut % ([2]; ± SD) | Gut % ([2]; ± SD) | oral bioavailability (%) [2, 12] | other results |
| --- | --- | --- | --- | --- | --- | --- | --- | --- | --- |
| N#C[C@H](O[C@@H]1O[C@H](CO[C@@H]2O[C@H](CO)[C@@H](O)[C@H](O)[C@H]2O)[C@@H](O)[C@H](O)[C@H]1O)c1ccccc1 [amygdalin, Amygdalin] | metabolized significantly faster | 238 ± 218 ng/bee | 833 ± 511 ng/bee | 78 ± 34 ng/bee | 31 ± 19% | 90 ± 5% | 11% |  | LD50 [3]: 0.003% |
| CN1[C@@H]2CC[C@H]1C[C@@H](OC(=O)C(CO)c1ccccc1)C2 (stereo partly shown) [atropine, Atropine, reference compound] |  | 236 ± 76 ng/bee | 89 ± 65 ng/bee | 90 ± 17 ng/bee |  | 46 ± 15% | 54 ± 15% |  | Consumed concentration that can impair honey bee memory retrieval [4]: above 10^–2 M |
| OCC1=C[C@@H](O)[C@@H]2C=CO[C@@H](O[C@@H]3O[C@H](CO)[C@@H](O)[C@H](O)[C@H]3O)[C@H]12 [aucubin, Aucubin] | metabolized significantly slower | 16400 ± 5640 ng/bee |  |  | 13.1 ± 3.8% |  |  |  | Metabolization percentage, day 4 to 5 [1]: significantly lower; also recorded: negative metabolization percentages; bioavailability [2, 11]: 13%; Effect on expression of the antimicrobial peptide hymenoptaecin ([5]; aucubin feeding): significantly increased the expression; Effect on honey bee immune functions [5]: significantly stimulated honey bee immune functions; Effect on levels of the bumble bee gut protozoan Crithidia bombi [6]: significantly decreased the levels |
| C=C[C@]12CN(C)[C@@H]3[C@H]4CO[C@H](C[C@H]41)[C@]1(C(=O)Nc4ccccc41)[C@@H]32 [gelsemine, Gelsemine] | metabolized significantly faster | 508 ± 174 ng/bee | 461 ± 415 ng/bee | 106 ± 67 ng/bee |  | 71 ± 32% | 30% | 6.1 ± 5.5% | bioavailability at 5 day [2, 10]: 6%; Gut % ([2]; ± SD, listed as Gelsemine): 30 ± 32%; Effect on levels of the bumble bee gut protozoan Crithidia bombi [6]: significantly decreased the levels |
| CCN1C[C@]2(COC(=O)c3ccccc3N3C(=O)C[C@H](C)C3=O)CC[C@H](OC)[C@@]34[C@@H]5C[C@H]6[C@H](OC)[C@@H]5[C@](O)(C[C@@H]6OC)[C@@](O)([C@@H](OC)[C@H]23)[C@@H]14 [methyllycaconitine, Methyllycaconitine] | metabolized significantly faster | 0.3 ± 0.2 ng/bee | 0.2 ± 0.1 ng/bee | 0.05 ± 0.03 ng/bee | < 10% | 81 ± 13% | 19 ± 13% |  |  |
| C/C=C1/C[C@@H](C)[C@@](C)(O)C(=O)OCC2=CCN3CC[C@@H](OC1=O)[C@@H]23 [senecionine, Senecionine] |  |  |  |  |  |  |  |  | Mean concentration (ng/bee) in whole bees [1, 13]: 4.9 ± 1.6 ng/bee; Relative metabolization rate ([1]; in vivo): metabolized significantly faster; Bee without gut (ng/bee) [2, 13]: 3.4 ± 2.2 ng/bee; Gut (ng/bee) [2, 13]: 2.3 ± 1.3 ng/bee; bioavailability ([2]; honey bee (Apis mellifera), in vivo, po, oral bioavailability (%)): < 10%; bioavailability ([2]; in vivo, po, oral bioavailability (%)): 4 ± 2.6% |
| C/C=C1/C[C@@H](C)[C@@](C)(O)C(=O)OC/C2=C/CN(C)CC[C@@H](OC1=O)C2=O [senkirkine, Senkirkine] | metabolized significantly faster | 7.4 ± 3.5 ng/bee | 7.0 ± 4.9 ng/bee | 2.3 ± 3.0 ng/bee | 9% | 73 ± 28% | 27% | 8.9 ± 6.3% | bioavailability [2, 11]: < 10% |
| CC(C)[C@]12O[C@H]1[C@@H]1O[C@]13[C@]1(O[C@H]1C[C@H]1C4=C(CC[C@@]13C)C(=O)OC4)[C@@H]2O [triptolide, Triptolide] | metabolized significantly slower | 4.4 ± 2.8 ng/bee | 3.1 ± 1.5 ng/bee | 0.6 ± 0.2 ng/bee | 21% | 79 ± 11% | 21 ± 11% | 20.6 ± 9.9% | Metabolization percentage, day 4 to 5 [1]: significantly lower; also recorded: negative metabolization percentages; Metabolization percentage, day 1 to 5 ([1]; quantity in whole bees vs total intake over the 5-day feeding period, day 5, 2 h after feeding was terminated): significantly lower |
